Data: patent US20170066759A1, “AROMATIC 5-MEMBERED HETEROCYCLIC DERIVATIVE HAVING TRPV4-INHIBITING ACTIVITY” (Shionogi & Co., Ltd., priority 2012, published 2017)

Assays:
CYP2D6 = target: T1, CYP2D6 (Homo sapiens, UniProt P10635); experiment: Test Example 6: CYP inhibition test, dextromethorphan O-demethylation (CYP2D6); assay type: in vitro ADME; conditions: pooled human hepatic microsome, 5 μmol/L dextromethorphan
T1 construct: enzyme, pooled human hepatic microsome 0.2 mg protein/mL; from tissue; host or cells: pooled human liver microsomes
Experimental: Test Example 6 CYP Inhibition Test […] The reaction conditions were as follows: substrate, 0.5 μmol/L ethoxyresorufin (CYP1A2), 100 μmol/L tolbutamide (CYP2C9), 50 μmol/L S-mephenytoin (CYP2C19), 5 μmol/L dextromethorphan (CYP2D6), 1 μmol/L terfenedine (CYP3A4); reaction time, 15 minutes; reaction temperature, 37° C.; enzyme, pooled human hepatic microsome 0.2 mg protein/mL; concentration of the compound of the present invention, 1, 5, 10, 20 μmol/L (four points). Each five kinds of substrates, human hepatic microsome, and the compound of the present invention in 50 mmol/L Hepes buffer as a reaction solution were added to a 96-well plate at the composition as described above. NADPH, as a cofactor was added to initiate metabolism reactions as markers and, after the incubation at 37° C. for 15 minutes, a methanol/acetonitrile=1/1 (v/v) solution was added to stop the reaction. After the centrifugation at 3000 rpm for 15 minutes, resorufin (CYP1A2 metabolite) in the supernatant was quantified by a fluorescent multilabel counter and toltributamide hydroxide (CYP2[…] metabolite), mephenytoin 4' hydroxide (CYP2C19 metabolite), […], and terfenadine alcohol (CYP3A4 metabolite) were quantified by LC/MS/MS. Addition of only DMSO being a solvent dissolving the compound of the present invention to a reaction system was adopted as a control (100%). Remaining activity (%) was calculated at each concentration of the compound of the present invention added as the solution and IC50 was calculated by reverse presumption by a logistic model using a concentration and an inhibition rate.

[1] = Test Example 11: BA test (oral absorbability); assay type: in vivo; conditions: plasma; Mouse, oral administration 1 mg/kg
Experimental: Materials and methods for experiments to evaluate oral absorbability
(1) Experimental animals: rats or mice were used. (2) Breeding condition: rats or mice were allowed free access to solid feed and sterilized tap water (3) Setting of dosage and grouping: Oral administration and intravenous administration were performed with the predetermined dosage. Grouping was set as below. (Dosage varied depending on each compound)
Oral administration 1 to 30 mg/kg (n=2 to 3)
Intravenous administration 0.5 to 10 mg/kg (n=2 to 3)
(4) Preparation of administered liquid: Oral administration was performed using a solution or a suspension. Intravenous administration was performed after solubilization. (5) Method of Administration: In oral administration, compulsory administration to the stomach was conducted using an oral sonde. […] (6) Evaluation items: Blood was chronologically collected, and then concentration of a compound of the present invention in blood plasma was measured using a LC/MS/MS. […]
(7) Statistical analysis: With regard to a shift in plasma concentration of the compound of the present invention, the area under the plasma concentration-time curve (AUC) was calculated using a nonlinear least-squares program, WinNonlin (a registered trademark). Bioavailability (BA) was calculated from the AUCs of the oral administration group and the intravenous administration group. […]

hERG (IKr) = target: T2, hERG (IKr) (Homo sapiens, UniProt Q12809); experiment: Test Example 10: hERG test (IKr, whole cell patch clamp); assay type: cell-based; conditions: HEK293 cells expressing hERG channel, pH 7.4, 1 μmol/L of the compound, read-out: hERG % inhibition of tail peak current (IKr)
T2 construct: expressed in transfected cells; host or cells: HEK293
Excerpt: For the purpose of assessing risk of an electrocardiogram QT interval prolongation of a compound of the present invention, effects of the compound of the present invention on delayed rectifier K^+ current (IKr), which plays an important role in the ventricular repolarization process, was studied using HEK293 cells expressing human ether-a-go-go related gene (hERG) channel.
After a cell was retained at a membrane potential of −80 mV by whole cell patch clamp method using an automated patch clamp system (PatchXpress 7000A, Axon Instruments Inc.), IKr induced by depolarization pulse stimulation at +40 mV for 2 seconds and, further, repolarization pulse stimulation at −50 mV for 2 seconds was recorded. […] From the recording IKr, an absolute value of the tail peak current was measured based on the current value at the resting membrane potential using an analysis software (DataXpress ver. 1, Molecular Devices Corporation). Further, the % inhibition relative to the tail peak current before application of the compound of the present invention was calculated, and compared with the vehicle-applied group (0.1% dimethyl sulfoxide solution) to assess influence of the compound of the present invention on IKr. […]

T2 sequence (Q12809 whole entry): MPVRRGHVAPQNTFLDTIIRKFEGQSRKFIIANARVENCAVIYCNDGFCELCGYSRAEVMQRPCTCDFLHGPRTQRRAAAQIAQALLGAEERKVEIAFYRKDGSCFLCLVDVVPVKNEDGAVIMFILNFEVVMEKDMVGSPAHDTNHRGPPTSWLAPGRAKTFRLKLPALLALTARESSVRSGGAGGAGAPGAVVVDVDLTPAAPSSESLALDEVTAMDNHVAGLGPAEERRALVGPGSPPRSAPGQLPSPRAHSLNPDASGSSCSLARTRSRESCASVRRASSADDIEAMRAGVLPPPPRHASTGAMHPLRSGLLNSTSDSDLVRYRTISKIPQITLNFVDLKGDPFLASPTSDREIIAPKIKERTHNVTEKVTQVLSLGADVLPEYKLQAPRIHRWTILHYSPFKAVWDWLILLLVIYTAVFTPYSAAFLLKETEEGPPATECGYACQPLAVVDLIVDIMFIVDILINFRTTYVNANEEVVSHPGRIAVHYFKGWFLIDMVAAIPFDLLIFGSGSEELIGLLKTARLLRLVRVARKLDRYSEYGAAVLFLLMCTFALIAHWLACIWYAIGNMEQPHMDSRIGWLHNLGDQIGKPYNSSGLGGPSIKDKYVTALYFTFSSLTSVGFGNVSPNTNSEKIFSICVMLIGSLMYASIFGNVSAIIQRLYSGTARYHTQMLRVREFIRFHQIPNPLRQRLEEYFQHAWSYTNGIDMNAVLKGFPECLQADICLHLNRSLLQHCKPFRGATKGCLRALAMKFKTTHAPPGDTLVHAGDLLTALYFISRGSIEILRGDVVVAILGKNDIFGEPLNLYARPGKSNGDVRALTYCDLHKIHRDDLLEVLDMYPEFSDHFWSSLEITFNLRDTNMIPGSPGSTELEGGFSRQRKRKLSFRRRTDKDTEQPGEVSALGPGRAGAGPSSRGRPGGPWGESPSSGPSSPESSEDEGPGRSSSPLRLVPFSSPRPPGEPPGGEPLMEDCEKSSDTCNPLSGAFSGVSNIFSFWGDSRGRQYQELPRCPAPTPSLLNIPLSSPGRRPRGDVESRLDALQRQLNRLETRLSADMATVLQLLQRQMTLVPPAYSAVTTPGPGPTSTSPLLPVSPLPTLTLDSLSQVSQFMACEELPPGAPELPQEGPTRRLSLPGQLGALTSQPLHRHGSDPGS
T1 sequence (P10635 whole entry): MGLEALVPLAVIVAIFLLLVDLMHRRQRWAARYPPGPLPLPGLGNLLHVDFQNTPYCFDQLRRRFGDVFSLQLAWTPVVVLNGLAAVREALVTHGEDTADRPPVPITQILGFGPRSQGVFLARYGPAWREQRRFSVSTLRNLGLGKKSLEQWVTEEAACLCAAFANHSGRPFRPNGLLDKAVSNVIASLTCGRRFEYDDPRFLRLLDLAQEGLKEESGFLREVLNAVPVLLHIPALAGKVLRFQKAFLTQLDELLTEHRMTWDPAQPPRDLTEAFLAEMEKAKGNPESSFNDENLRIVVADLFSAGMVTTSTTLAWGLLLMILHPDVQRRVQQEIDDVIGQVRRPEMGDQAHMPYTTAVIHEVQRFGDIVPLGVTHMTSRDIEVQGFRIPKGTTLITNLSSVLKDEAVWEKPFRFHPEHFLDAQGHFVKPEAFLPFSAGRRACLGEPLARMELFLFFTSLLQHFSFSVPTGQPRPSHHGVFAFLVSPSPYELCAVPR

Row | SMILES | IC50 (CYP2D6) | bioavailability [1] | inhibition at 10 min, 1 μmol/L (hERG (IKr))
1 | Cc1nc(C)c(-c2csc(NC(=O)Cc3ccc(S(C)(=O)=O)cc3)n2)s1 [Compound I-17] | > 20 µM | 54.6% | 
2 | Cc1nc(C)c(-c2csc(NC(=O)C3CCC(F)(F)C3)n2)s1 (stereo not drawn) [Compound I-18] |  |  | 6.1%
